The conditions of the series: Liquid.

The source of these data is the NIST ThermoML archive (doi:10.1016/j.fluid.2004.02.021).

The structures appear in SMILES notation. Numbers after ± are expanded uncertainties.

As for `ClC(Cl)C(Cl)Cl` [1,1,2,2-tetrachloroethane], the “vapor or sublimation pressure” value (283.15 K) is listed as 0.263 ± 0.008 kPa; the “vapor or sublimation pressure” value (288.15 K) turned out to be 0.373 ± 0.01 kPa; the “vapor or sublimation pressure” value (293.15 K) stood at 0.521 ± 0.013 kPa; the “vapor or sublimation pressure” value (298.15 K) is reported as 0.711 ± 0.017 kPa; the “vapor or sublimation pressure” value (303.15 K) amounted to 0.98 ± 0.022 kPa; the “vapor or sublimation pressure” value (308.15 K) stood at 1.289 ± 0.028 kPa. In addition, the “vapor or sublimation pressure” value by setting is: (313.15 K) 1.701 ± 0.027 kPa; (318.15 K) 2.236 ± 0.029 kPa; (323.15 K) 2.86 ± 0.032 kPa.

For `c1ccccc1` [benzene], the “vapor or sublimation pressure” value is recorded as 6.078 ± 0.045 kPa (283.15 K); 7.849 ± 0.052 kPa (288.15 K); 10.03 ± 0.061 kPa (293.15 K); 12.69 ± 0.072 kPa (298.15 K); 15.93 ± 0.085 kPa (303.15 K); 19.81 ± 0.1 kPa (308.15 K). Further, the “vapor or sublimation pressure” value is, setting by setting: (313.15 K) 24.4 ± 0.12 kPa; (318.15 K) 29.85 ± 0.14 kPa; (323.15 K) 36.24 ± 0.17 kPa.

Turning to `ClC(Cl)=C(Cl)Cl` [tetrachloroethene], the “vapor or sublimation pressure” value was 1.023 ± 0.023 kPa (283.15 K); 1.4 ± 0.026 kPa (288.15 K); 1.861 ± 0.028 kPa (293.15 K); 2.462 ± 0.03 kPa (298.15 K); 3.205 ± 0.033 kPa (303.15 K); 4.117 ± 0.037 kPa (308.15 K). For the same compound, the “vapor or sublimation pressure” value runs as follows: (313.15 K) 5.253 ± 0.041 kPa; (318.15 K) 6.621 ± 0.047 kPa; (323.15 K) 8.286 ± 0.054 kPa.
